# Target: Human factor D (Homo sapiens (Human), UniProt P00746)
# Assay: Human Factor D Assay
# Type: biochemical
# Settings: Human factor D 80 nM, substrate Z-L-Lys-SBzl and DTNB 100 μM each, pH 7.5
# Experimental: Example 14. Human Factor D Assay
# Human factor D (purified from human serum, Complement Technology, Inc.) at 80 nM final concentration is incubated with test compound at various concentrations for 5 minutes at room temperature in 50 mM Tris, 1M NaCl, pH 7.5. A synthetic substrate Z-L-Lys-SBzl and DTNB (Ellman's reagent) are added to final concentrations of 100 μM each. The increase in color is recorded at OD405 nm in a microplate in kinetic mode over 30 minutes with 30 second time points in a spectrofluorimeter. IC50 values are calculated by non-linear regression from the percentage of inhibition of complement factor D activity as a function of test compound concentration.
# Chain of Human factor D (P00746 26-253): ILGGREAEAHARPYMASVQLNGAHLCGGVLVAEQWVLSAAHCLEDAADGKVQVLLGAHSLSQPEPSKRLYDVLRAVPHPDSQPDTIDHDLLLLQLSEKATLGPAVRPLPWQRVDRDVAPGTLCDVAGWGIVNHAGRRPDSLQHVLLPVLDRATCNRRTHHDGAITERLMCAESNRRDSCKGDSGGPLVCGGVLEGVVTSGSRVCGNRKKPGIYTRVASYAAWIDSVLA
row,Structure (SMILES),IC50
1,"CC(=O)c1cn(CC(=O)N2C[C@H](F)C[C@H]2C(=O)NCc2cccc(Cl)c2F)c2ccc(NC(=O)NC3CC3)cc12 [Compound 1, (2S,4R)-1-(2-(3-acetyl-5-(3-cyclopropylureido)-1H-indol-1-yl)acetyl)-N-(3-chloro-2-fluorobenzyl)-4-fluoropyrrolidine-2-carboxamide]",< 1000 nM
2,"CC(=O)c1cn(CC(=O)N2C[C@H](F)C[C@H]2C(=O)NCc2cccc(Cl)c2F)c2ccc(NC(=O)NCc3nn[nH]n3)cc12 [Compound 2, (2S,4R)-1-(2-(5-(3-((2H-tetrazol-5-yl)methyl)ureido)-3-acetyl-1H-indo-1-yl)acetyl)-N-(3-chloro-2-fluorobenzyl)-4-fluoropyrrolidine-2-carboxamide]",< 1000 nM
3,"CC(=O)c1cn(CC(=O)N2[C@@H]3C[C@@H]3C[C@H]2C(=O)NCc2cccc(Cl)c2F)c2ccc(NC(=O)NC3CC3)cc12 [Compound 3, (1R,3S,5R)-2-(2-(3-acetyl-5-(3-cyclopropylureido)-1H-indol-1-yl)acetyl)-N-(3-chloro-2-fluorobenzyl)-2-azabicyclo[3.1.0]hexane-3-carboxamide]",< 1000 nM
4,"CC(=O)c1cn(CC(=O)N2C[C@H](F)C[C@H]2C(=O)NCc2cccc(Cl)c2F)c2ccc(NC(=O)NC3(C)CC3)cc12 [Compound 4, (2S,4R)-1-(2-(3-acetyl-5-(3-(1-methylcyclopropyl)ureido)-1H-indol-1-yl)acetyl)-N-(3-chloro-2-fluorobenzyl)-4-fluoropyrrolidine-2-carboxamide]",< 1000 nM
5,"CC(=O)c1cn(CC(=O)N2[C@@H]3C[C@@H]3C[C@H]2C(=O)N[C@H](C)c2cccc(Cl)c2F)c2ccc(NC(=O)NC3CC3)cc12 [Compound 5, (1R,3S,5R)-2-(2-(3-acetyl-5-(3-cyclopropylureido)-1H-indol-1-yl)acetyl)-N-((R)-1-(3-chloro-2-fluorophenyl)ethyl)-2-azabicyclo[3.1.0]hexane-3-carboxamide]",< 1000 nM
6,"CC(=O)c1cn(CC(=O)N2C[C@H](F)C[C@H]2C(=O)NCc2cccc(Cl)c2F)c2ccc(NC(=O)NC(C)C)cc12 [Compound 6, (2S,4R)-1-(2-(3-acetyl-5-(3-isopropylureido)-1H-indol-1-yl)acetyl)-N-(3-chloro-2-fluorobenzyl)-4-fluoropyrrolidine-2-carboxamide]",< 1000 nM
7,"CC(=O)c1cn(CC(=O)N2C[C@H](F)C[C@H]2C(=O)NCc2cccc(Cl)c2F)c2ccc(NC(=O)NCc3ccon3)cc12 [Compound 7, (2S,4R)-1-(2-(3-acetyl-5-(3-(isoxazol-3-ylmethyl)ureido)-1H-indol-1-yl)acetyl)-N-(3-chloro-2-fluorobenzyl)-4-fluoropyrrolidine-2-carboxamide]",< 1000 nM
8,"CC(=O)c1cn(CC(=O)N2C[C@H](F)C[C@H]2C(=O)NCc2cccc(Cl)c2F)c2ccc(NC(=O)NCc3ncccn3)cc12 [Compound 8, (2S,4R)-1-(2-(3-acetyl-5-(3-(pyrimidin-2-ylmethyl)ureido)-1H-indol-1-yl)acetyl)-N-(3-chloro-2-fluorobenzyl)-4-fluoropyrrolidine-2-carboxamide]",< 1000 nM
9,"CC(=O)c1cn(CC(=O)N2C[C@H](F)C[C@H]2C(=O)NCc2cccc(Cl)c2F)c2ccc(NC(=O)N3CCCC3)cc12 [Compound 9, N-(3-acetyl-1-(2-((2S,4R)-2-(3-chloro-2-fluorobenzylcarbamoyl)-4-fluoropyrrolidin-1-yl)-2-oxoethyl)-1H-indol-5-yl)pyrrolidine-1-carboxamide]",< 1000 nM
10,"CC(=O)c1cn(CC(=O)N2C[C@H](F)C[C@H]2C(=O)Nc2cccc(OC(F)(F)F)c2F)c2ccc(NC(=O)NC3CC3)cc12 [Compound 10, (2S,4R)-1-(2-(3-acetyl-5-(3-cyclopropylureido)-1H-indol-1-yl)acetyl)-4-fluoro-N-(2-fluoro-3-(trifluoromethoxy)phenyl) pyrrolidine-2-carboxamide]",< 1000 nM
11,"CC(=O)c1cn(CC(=O)N2[C@@H]3C[C@@H]3C[C@H]2C(=O)Nc2cccc(OC(F)(F)F)c2F)c2ccc(NC(=O)NC3CC3)cc12 [Compound 11, (1R,3S,5R)-2-(2-(3-acetyl-5-(3-cyclopropylureido)-1H-indol-1-yl)acetyl)-N-(2-fluoro-3-(trifluoromethoxy)phenyl)-2-azabicyclo[3.1.0]hexane-3-carboxamide]",< 1000 nM
12,CC(=O)c1cn(CC(=O)N2C[C@H](F)C[C@H]2C(=O)NCc2cccc(Cl)c2F)c2ccc(NC(=O)N3CCC(F)(F)C3)cc12 [Compound 13],< 1000 nM
13,"CC(=O)c1cn(CC(=O)N2C[C@H](F)C[C@H]2C(=O)NCc2cccc(Cl)c2F)c2ccc(NC(=O)OCC3CC3)cc12 [Compound 15, cyclopropylmethyl 3-acetyl-1-(2-((2S,4R)-2-(3-chloro-2-fluorobenzylcarbamoyl)-4-fluoropyrrolidin-1-yl)-2-oxoethyl)-1H-indol-5-ylcarbamate]",< 1000 nM
14,"CC(=O)c1cn(CC(=O)N2C[C@H](F)C[C@H]2C(=O)NCc2cccc(Cl)c2F)c2ccc(NC(=O)N3CCCC(F)(F)C3)cc12 [Compound 16, N-(3-acetyl-1-(2-((2S,4R)-2-(3-chloro-2-fluorobenzylcarbamoyl)-4-fluoropyrrolidin-1-yl)-2-oxoethyl)-1H-indol-5-yl)-3,3-difluoropiperidine-1-carboxamide]",< 1000 nM
15,"CC(=O)c1cn(CC(=O)N2C[C@H](F)C[C@H]2C(=O)Nc2cccc(OC(F)(F)F)c2F)c2ccc(NC(=O)N3CCCC(F)(F)C3)cc12 [Compound 17, N-(3-acetyl-1-(2-((2S,4R)-4-fluoro-2-(2-fluoro-3-(trifluoromethoxy)phenylcarbamoyl)pyrrolidin-1-yl)-2-oxoethyl)-1H-indol-5-yl)-3,3-difluoropiperidine-1-carboxamide]",< 1000 nM
16,"CC(=O)c1cn(CC(=O)N2C[C@H](F)C[C@H]2C(=O)Nc2cccc(-c3ccccc3Cl)c2F)c2ccc(NC(=O)N3CCCC(F)(F)C3)cc12 [Compound 18, N-(3-acetyl-1-(2-((2S,4R)-2-(2′-chloro-2-fluorobiphenyl-3-ylcarbamoyl)-4-fluoropyrrolidin-1-yl)-2-oxoethyl)-1H-indol-5-yl)-3,3-difluoropiperidine-1-carboxamide]",< 1000 nM
17,"CC(=O)c1cn(CC(=O)N2C[C@H](F)C[C@H]2C(=O)NCc2cccc(Cl)c2F)c2ccc(NC(=O)Nc3ccon3)cc12 [Compound 19, (2S,4R)-1-(2-(3-acetyl-5-(3-isoxazol-3-ylureido)-1H-indol-1-yl)acetyl)-N-(3-chloro-2-fluorobenzyl)-4-fluoropyrrolidine-2-carboxamide]",< 1000 nM
18,"CC(=O)c1cn(CC(=O)N2C[C@H](F)C[C@H]2C(=O)Nc2cccc(C(F)(F)F)n2)c2ccc(NC(=O)N3CCCC(F)(F)C3)cc12 [Compound 20, N-(3-acetyl-1-(2-((2S,4R)-4-fluoro-2-(6-(trifluoromethyl)pyridin-2-ylcarbamoyl)pyrrolidin-1-yl)-2-oxoethyl)-1H-indol-5-yl)-3,3-difluoropiperidine-1-carboxamide]",< 1000 nM
19,"CC(=O)c1cn(CC(=O)N2C[C@H](F)C[C@H]2C(=O)NCc2cccc(Cl)c2F)c2ccc(NC(=O)NCC(F)(F)F)cc12 [Compound 21, (2S,4R)-1-(2-(3-acetyl-5-(3-(2,2,2-trifluoroethyl)ureido)-1H-indol-1-yl)acetyl)-N-(3-chloro-2-fluorobenzyl)-4-fluoropyrrolidine-2-carboxamide]",< 1000 nM
20,"CC(=O)c1cn(CC(=O)N2C[C@H](F)C[C@H]2C(=O)NCc2cccc(Cl)c2F)c2ccc(NC(=O)N3Cc4cncnc4C3)cc12 [Compound 22, N-(3-acetyl-1-(2-((2S,4R)-2-(3-chloro-2-fluorobenzylcarbamoyl)-4-fluoropyrrolidin-1-yl)-2-oxoethyl)-1H-indol-5-yl)-5H-pyrrolo[3,4-d]pyrimidine-6(7H)-carboxamide]",< 1000 nM
21,"CC(=O)c1cn(CC(=O)N2C[C@H](F)C[C@H]2C(=O)NCc2cccc(Cl)c2F)c2ccc(NC(=O)Nc3cncnc3)cc12 [Compound 23, (2S,4R)-1-(2-(3-acetyl-5-(3-pyrimidin-5-ylureido)-1H-indol-1-yl)acetyl)-N-(3-chloro-2-fluorobenzyl)-4-fluoropyrrolidine-2-carboxamide]",< 1000 nM
22,"NC(=O)c1nn(CC(=O)N2C[C@H](F)C[C@H]2C(=O)Nc2cccc(-c3ccccc3Cl)c2F)c2ccc(NC(=O)N3CCCC(F)(F)C3)cc12 [Compound 24, 1-(2-((2S,4R)-2-(2′-chloro-2-fluorobiphenyl-3-ylcarbamoyl)-4-fluoropyrrolidin-1-yl)-2-oxoethyl)-5-(3,3-difluoropiperidine-1-carboxamido)-1H-indazole-3-carboxamide]",< 1000 nM
23,"NC(=O)c1nn(CC(=O)N2C[C@H](F)C[C@H]2C(=O)Nc2cccc(OC(F)(F)F)c2F)c2ccc(NC(=O)Nc3ccon3)cc12 [Compound 25, 1-(2-((2S,4R)-4-fluoro-2-(2-fluoro-3-(trifluoromethoxy)phenylcarbamoyl)pyrrolidin-1-yl)-2-oxoethyl)-5-(3-isoxazol-3-ylureido)-1H-indazole-3-carboxamide]",< 1000 nM
24,"NC(=O)c1nn(CC(=O)N2C[C@H](F)C[C@H]2C(=O)Nc2cccc(OC(F)(F)F)c2F)c2ccc(NC(=O)N3CCCC(F)(F)C3)cc12 [Compound 26, 5-(3,3-difluoropiperidine-1-carboxamido)-1-(2-((2S,4R)-4-fluoro-2-(2-fluoro-3-(trifluoromethoxy)phenylcarbamoyl)pyrrolidin-1-yl)-2-oxoethyl)-1H-indazole-3-carboxaide]",< 1000 nM
25,"NC(=O)c1nn(CC(=O)N2[C@@H]3C[C@@H]3C[C@H]2C(=O)Nc2cccc(OC(F)(F)F)c2F)c2ccc(NC(=O)N3CCCC(F)(F)C3)cc12 [Compound 27, 5-(3,3-difluoropiperidine-1-carboxamido)-1-(2-((1R,3S,5R)-3-(2-fluoro-3-(trifluoromethoxy)phenylcarbamoyl)-2-azabicyclo[3.1.0]hexan-2-yl)-2-oxoethyl)-1H-indazole-3-carboxamide]",< 1000 nM
